Assay results: ChEMBL document CHEMBL1212936, “Discovery of 2-[1-(4-chlorophenyl)cyclopropyl]-3-hydroxy-8-(trifluoromethyl)quinoline-4-carboxylic acid (PSI-421), a P-selectin inhibitor with improved pharmacokinetic properties and oral efficacy in models of vascular injury” (J Med Chem, 2010)
Values after ≈ are worked out from the molar mass of the structure shown. Active and inactive are the calls of the source. The rule behind the calls is not given here.

What was measured:
[1] = Aqueous solubility of the compound at pH 6.6; format: physicochemical; conditions: aqueous solution
[2] = Aqueous solubility of the compound at pH 7.4; format: physicochemical; conditions: aqueous solution, read-out: solubility
[3] = Oral bioavailability in Sprague-Dawley rat at 10 mg/kg; format: ADME, organism-based; conditions: in vivo
Rattus norvegicus [4] = test: Dose normalized AUC in Sprague-Dawley rat measured per mg of plasma at 3 mg/kg, iv and 10 mg/kg, po; format: ADME, organism-based; conditions: in vivo
Mus musculus [5] = test: Reduction of leukocytes rolling flux in acute intravital microscopy model of C57B6 mouse cremasteric postcapillary venules at 50 mg/kg, po after 35 mins relative to control; format: functional; parameters: scale not given: the % may be the effect or the level left
[6] = biological target: T1, P-selectin glycoprotein ligand 1 (Homo sapiens) (UniProt Q14242); test: Binding affinity to recombinant PSGL-1 assessed as saturation transfer difference at 100 uM by NMR analysis
T1 sequence (whole entry): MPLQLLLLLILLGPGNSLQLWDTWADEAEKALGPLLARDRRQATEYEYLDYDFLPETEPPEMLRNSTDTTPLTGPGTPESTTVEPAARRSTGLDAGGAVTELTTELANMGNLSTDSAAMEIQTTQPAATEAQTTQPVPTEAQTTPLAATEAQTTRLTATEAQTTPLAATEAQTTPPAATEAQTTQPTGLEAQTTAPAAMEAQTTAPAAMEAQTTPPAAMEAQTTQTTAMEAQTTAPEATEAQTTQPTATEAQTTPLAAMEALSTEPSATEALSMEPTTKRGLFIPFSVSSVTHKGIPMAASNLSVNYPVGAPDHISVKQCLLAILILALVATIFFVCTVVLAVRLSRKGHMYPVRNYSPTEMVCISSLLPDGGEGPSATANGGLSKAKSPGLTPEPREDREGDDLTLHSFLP

[7] = Solubility of the compound in fed simulated intestinal bile salts-lecithin mixture fluid at pH 5.5; format: physicochemical
[8] = Solubility of the compound in fasted simulated intestinal bile salts-lecithin mixture fluid at pH 6; format: physicochemical
[9] = Physiological stability of the compound at pH 1 assessed as compound remaining after 4 hrs in presence of 20% acetonitrile; format: physicochemical; conditions: read-out: Stability
[10] = Physiological stability of the compound at pH 1 assessed as compound remaining after 8 hrs in presence of 20% acetonitrile; format: physicochemical; conditions: read-out: Stability
[11] = Physiological stability of the compound at pH 1 assessed as compound remaining after 12 hrs in presence of 20% acetonitrile; format: physicochemical; conditions: read-out: Stability
[12] = Physiological stability of the compound at pH 4.5 assessed as compound remaining after 4 hrs in presence of 20% acetonitrile; format: physicochemical; conditions: read-out: Stability
[13] = Physiological stability of the compound at pH 4.5 assessed as compound remaining after 8 hrs in presence of 20% acetonitrile; format: physicochemical; conditions: read-out: Stability
[14] = Physiological stability of the compound at pH 4.5 assessed as compound remaining after 20 hrs in presence of 20% acetonitrile; format: physicochemical; conditions: read-out: Stability
[15] = Physiological stability of the compound at pH 4.5 assessed as compound remaining after 24 hrs in presence of 20% acetonitrile; format: physicochemical; conditions: read-out: Stability
[16] = Physiological stability of the compound at pH 6.6 assessed as compound remaining after 8 hrs in presence of 20% acetonitrile; format: physicochemical; conditions: read-out: Stability
[17] = Physiological stability of the compound at pH 6.6 assessed as compound remaining after 12 hrs in presence of 20% acetonitrile; format: physicochemical; conditions: read-out: Stability
[18] = Physiological stability of the compound at pH 6.6 assessed as compound remaining after 24 hrs in presence of 20% acetonitrile; format: physicochemical; conditions: read-out: Stability
[19] = Physiological stability of the compound at pH 7.4 assessed as compound remaining after 4 hrs in presence of 20% acetonitrile; format: physicochemical; conditions: read-out: Stability
[20] = Physiological stability of the compound at pH 7.4 assessed as compound remaining after 12 hrs in presence of 20% acetonitrile; format: physicochemical; conditions: read-out: Stability
[21] = Physiological stability of the compound at pH 7.4 assessed as compound remaining after 24 hrs in presence of 20% acetonitrile; format: physicochemical; conditions: read-out: Stability
[22] = Physiological stability of the compound at pH 9 assessed as compound remaining after 8 hrs in presence of 20% acetonitrile; format: physicochemical; conditions: read-out: Stability
[23] = Physiological stability of the compound at pH 9 assessed as compound remaining after 20 hrs in presence of 20% acetonitrile; format: physicochemical; conditions: read-out: Stability
[24] = Physiological stability of the compound in simulated intestinal fluid assessed as compound remaining after 4 hrs in presence of 20% acetonitrile; format: physicochemical; conditions: read-out: Stability
[25] = Physiological stability of the compound in simulated intestinal fluid assessed as compound remaining after 8 hrs in presence of 20% acetonitrile; format: physicochemical; conditions: read-out: Stability
[26] = Physiological stability of the compound in simulated intestinal fluid assessed as compound remaining after 16 hrs in presence of 20% acetonitrile; format: physicochemical; conditions: read-out: Stability
[27] = Physiological stability of the compound in simulated intestinal bile salts-lecithin mixture fluid assessed as compound remaining after 24 hrs in presence of 20% acetonitrile; format: physicochemical; conditions: read-out: Stability
[28] = Half life in Sprague-Dawley rat liver microsomes; format: ADME, Microsome
[29] = Half life in Beagle dog liver microsomes; format: ADME, Canis lupus familiaris, Microsome
[30] = Half life in cynomolgus monkey liver microsomes; format: ADME, Macaca fascicularis, Microsome
[31] = Half life in C57B6 mouse liver microsomes; format: ADME, Microsome
[32] = Half life in human liver microsomes; format: ADME, Microsome
Mus musculus [33] = test: Dose normalized AUC in C57B6 mouse measured per mg of plasma at 2 mg/kg, iv and 10 mg/kg, po; format: ADME, organism-based; conditions: in vivo
Cynomolgus monkey = test: Dose normalized AUC in cynomolgus monkey measured per mg of plasma at 5 mg/kg, iv and po; format: ADME, organism-based, Macaca fascicularis; parameters: dose 5 mg/kg, route oral; conditions: in vivo
Rattus norvegicus [34] = test: Inhibition of Sprague-Dawley rat neointimal hyperplasia carotid balloon injury model at 30 mg/kg, po once daily for 13 days; format: functional; conditions: 312 h
Papio anubis [35] = test: Antithrombotic activity in Baboon deep vein thrombosis model assessed as vein opening at 1 mg/kg, po; format: functional, organism-based; parameters: dose 1 mg/kg
Papio anubis [36] = test: Antithrombotic activity in Baboon deep vein thrombosis model assessed as decrease in vein wall inflammation at 1 mg/kg, po; format: functional, organism-based; parameters: dose 1 mg/kg
Papio anubis [37] = test: Toxicity in Baboon deep vein thrombosis model assessed as induction of coagulation at 1 mg/kg, po; format: organism-based; parameters: dose 1 mg/kg, route oral; conditions: in vivo

SMILES: O=C(O)c1c(O)c(C2(c3ccc(Cl)cc3)CC2)nc2c(C(F)(F)F)cccc12
- solubility [1]: 920 µg/mL (≈ 2260 µM)
- solubility [2]: 165 µg/mL (≈ 405 µM)
- bioavailability [3]: 67%
- AUC (Rattus norvegicus [4]): 21000 ng·h/mL
- Activity (Mus musculus [5]): 69%
- Activity [6]: 9%
- solubility [7]: 835 µg/mL
- solubility [8]: 87 µg/mL
- remaining at 4 h [9]: 101%
- remaining at 8 h [10]: 102%
- remaining at 12 h [11]: 102%
- remaining at 4 h [12]: 102%
- remaining at 8 h [13]: 102%
- remaining at 20 h [14]: 100%
- remaining at 24 h [15]: 102%
- remaining at 8 h [16]: 104%
- remaining at 12 h [17]: 106%
- remaining at 24 h [18]: 104%
- remaining at 4 h [19]: 102%
- remaining at 12 h [20]: 102%
- remaining at 24 h [21]: 103%
- remaining at 8 h [22]: 98%
- remaining at 20 h [23]: 101%
- remaining at 4 h [24]: 101%
- remaining at 8 h [25]: 104%
- remaining at 16 h [26]: 101%
- remaining at 24 h [27]: 103%
- half-life [28]: > 1 h
- half-life [29]: > 1 h
- half-life [30]: > 1 h
- half-life [31]: > 1 h
- half-life [32]: > 1 h
- AUC (Mus musculus [33]): 1505 ng·h/mL
- AUC (Cynomolgus monkey): 84620 ng·h/mL
- inhibition in vivo at 30 mg/kg (Rattus norvegicus [34]): 31%
- Activity (Papio anubis [35]): Active
- Activity (Papio anubis [36]): Active
- Activity (Papio anubis [37]): Non-toxic
